Measured values taken from article PMC10725991, “Kaempferol is a novel antiviral agent against channel catfish virus infection through blocking viral attachment and penetration in vitro” (Frontiers in Veterinary Science, 2023).

What was measured:
[1] = tested on: CCV in CCO cells; assay: Virus titration assay (TCID50) after kaempferol treatment; assay type: cell-based, Channel catfish virus (CCV, Ictalurid herpesvirus 1); conditions: increasing concentration 2.5-15 μg/mL, 24 and 36 h post CCV infection
Experimental: The CCO cells were infected with the CCV at 10^3 TCID50/ml at 28°C for 1 h. Then, the cell culture medium was replaced using isopycnic DMEM medium containing various concentrations kaempferol (2.5, 5, 7.5, 10, 12.5, and 15 μg/mL). The cells without exposure to kaempferol and CCV were set as the mock control. CCV-infected cells served as a negative control. 24 and 36 h post-infection, the cells were collected and subjected to the RT-qPCR and western blot analysis for the viral gene and protein expression. Meanwhile, the cells were treated as described above for the determination of virus titer. The supernatant and cell pellets were collected at 24 and 36 h post-infection and the TCID50 was used to evaluate the viral loads of intracellular and extracellular.
(§1) Measurement of viral titer was described previously ([5]). […]
Figure 3 The anti-CCV activity by different concentration of kaempferol in vitro. […] The relative expression levels of the CCV ORF 39 and ORF 59 genes were evaluated by RT-qPCR at 24 h (A) and 36 h (B) post-infection. […] The cells were collected at 24 h (E) and 36 h (F) after infection and CCV ORF 39 and ORF59 proteins and cellular GADPH were analyzed by western blot. (G) The intracellular and released CCV virions separated from cell lysates and supernatants at 24 h and 36 h post infection were analyzed by viral titer. […] The p value was determined by *p < 0.05, **p < 0.01.

[2] = tested on: CCV in CCO cells; assay: Virus attachment assay; assay type: cell-based, Channel catfish virus (CCV, Ictalurid herpesvirus 1); conditions: kaempferol 15 μg/mL, 24 h
Experimental: The attachment assay was performed as previously described, with slight modifications ([35]). Briefly, monolayer CCO cells seeded in 24-well plates were pre-cooled at 4°C for 30 min, and then the pre-cooled cells were treated with kaempferol (15 μg/mL) or left untreated for 2 h at 4°C. Cells were then incubated with CCV at 4°C for 1 h to allow virus attachment but prevent viral internalization. Thereafter, the compound and unattached virus were washed with ice-cold PBS and a fresh DMEM medium was added. After incubated at 28°C for 24 h, the cells were collected for subsequent experiments, including RT-qPCR and viral titer.
as §1
For RT-qPCR, the total RNA was isolated from CCV-infected cells using RnaExTM (Trizol)^a reagent (GENERAY, China), and reversed transcribed applying a HiScript III RT SuperMix with gDNA wiper (Vazyme, China) following the manufacturer’s instructions. Quantitative PCR was performed with a LightCycler 96 Real-Time PCR Detection System (Roche, USA) using ChamQ Universal SYBR qPCR Master Mix (Vazyme, China) with the following cycle conditions: 95°C for 30 s, followed by 40 cycles of 95°C for 10 s and 60°C for 30 s. […] Fold changes of the selected gene vs 18 s (internal reference) were calculated by the 2^−△△Ct method. […]

## O=c1c(O)c(-c2ccc(O)cc2)oc2cc(O)cc(O)c12 [Kaempferol]
[1]
  intracellular and progeny viral loads (viral titer): dramatically reduced
[2]; 2 h at 4°C
  down-regulation of viral attachment (CCV ORF 39/ORF 59, RT-qPCR) vs CCV control: more than 50%
[2]
  production of intracellular virus (virus titer), attachment assay: significantly reduced
